Measurements from PubChem BioAssay (NCI).
Where “and” joins values, the source holds several entries; their conditions need not be identical. Identical values can stand only once.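 Following 48 hours of exposure in 96-well plates, responses at five concentrations were used to interpolate endpoints linearly. GI50 is the concentration that inhibits growth by half. The concentration for full growth arrest is given as TGI.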

Legend:
Assay in all cases: growth of human tumour cells (NCI), 48 h
[1] = tested on: LOX IMVI melanoma
[2] = tested on: PC-3 prostate
[3] = tested on: K-562 leukemia
[4] = tested on: 786-0 renal
[5] = tested on: OVCAR-3 ovarian
[6] = tested on: UO-31 renal
[7] = tested on: HCT-116 colon
[8] = tested on: SR leukemia
[9] = tested on: CAKI-1 renal
[10] = tested on: SN12C renal

Structure (SMILES)	GI50 [1]	TGI [1]	GI50 [2]	TGI [2]	GI50 [3]	TGI [3]	GI50 [4]	TGI [4]	GI50 [5]	TGI [5]	GI50 [6]	TGI [6]	GI50 [7]	TGI [7]	GI50 [8]	TGI [8]	GI50 [9]	TGI [9]	GI50 [10]	TGI [10]
C=CCn1c(C)nc2ccc(Nc3nc(Nc4ccc(F)cc4)nc4ccccc34)cc21	4.36 µM	23 µM	3.14 µM	14.7 µM	3.13 µM	11.9 µM	7.44 µM	23.8 µM	5.04 µM	17.8 µM	4.53 µM	19.3 µM	2.41 µM	7.67 µM	2.26 µM	5.93 µM	6.86 µM	27.5 µM	2.78 µM	15.1 µM
CC(C)CCC[C@@H](C)[C@H]1CC[C@H]2[C@@H]3CC[C@H]4C[C@@H](CCC=C(c5cc(Cl)c(O)c(C(=O)O)c5)c5cc(Cl)c(O)c(C(=O)O)c5)CC[C@]4(C)[C@H]3CC[C@]12C		> 100 µM		> 100 µM		> 100 µM		> 100 µM		> 100 µM		> 100 µM		> 100 µM		> 100 µM		> 100 µM		> 100 µM
O=c1c2cc(F)ccc2sc2c(N3CCNCC3)nc3ccc(F)cc3c12	1.62 µM	3.16 µM	1.7 µM	3.3 µM			1.49 µM	2.98 µM	1.73 µM	3.17 µM	1.31 µM	2.6 µM	1.63 µM	3.21 µM			1.57 µM	2.92 µM	1.58 µM	3.05 µM
CCC[CH2][Sn]([Cl])([Cl])[CH2]CCC	0.464 µM	1.84 µM			0.233 µM	1.24 µM	0.714 µM	2.04 µM	1.03 µM	2.32 µM	1.39 µM	2.69 µM	1.17 µM	2.61 µM	0.296 µM	1.21 µM	0.295 µM	1.44 µM	0.966 µM	2.25 µM
C=CCNc1nc2c(s1)C(=O)c1ccccc1C2=O		19.6 µM		30.3 µM		35.8 µM		28.5 µM		37.6 µM		26.1 µM		13.6 µM		> 100 µM		26.8 µM		27.4 µM
COC(=O)C1C(O)CCC2CN3CCc4c([nH]c5ccccc45)C3CC21 (stereo not given)		> 100 µM		> 100 µM		> 100 µM		> 100 µM		> 100 µM		> 100 µM		> 100 µM			> 100 µM	> 100 µM		> 100 µM
COc1ccc(/C=C/C(=O)/C=C/c2cc3ccccc3[nH]c2=O)cc1			2.38 µM	7.81 µM	3.34 µM	> 100 µM	1.87 µM	3.51 µM	2.85 µM	7.91 µM	3.48 µM	17.9 µM	1.55 µM	3.24 µM	2.88 µM	8.65 µM	4.3 µM	17.8 µM	2.41 µM	6.73 µM
COc1ccc(-c2ccncc2)cc1C(N)=O	> 25 µM	> 25 µM	> 25 µM	> 25 µM	> 25 µM	> 25 µM	> 25 µM	> 25 µM	> 25 µM	> 25 µM	> 25 µM	> 25 µM	> 25 µM	> 25 µM	> 25 µM	> 25 µM	> 25 µM	> 25 µM	> 25 µM	> 25 µM
CC[n+]1oc(C(=O)c2ccc(Cl)cc2)c(-c2ccccc2)c1-c1ccccc1.[Cl][Fe]([Cl])([Cl])[Cl]	1.82 µM	> 100 µM	31.4 µM	> 100 µM	> 100 µM	> 100 µM	91.8 µM	> 100 µM	23.1 µM	56.2 µM	2.23 µM	21.5 µM			33 µM	> 100 µM			83.5 µM	> 100 µM
Cc1[nH]nc(C(F)(F)F)c1N=NN(C)C		> 100 µM		25.1 µM		11.9 µM		3.09 µM		22.1 µM		5.03 µM		4.99 µM		18.8 µM		3.56 µM		30.1 µM
COc1ccc(NC(=O)CSC2=C(Nc3cccc(Br)c3)C(=O)N(Cc3ccccc3)C2=O)cc1Cl	40.4 µM	> 100 µM	8.82 µM	> 100 µM	4.41 µM	> 100 µM	> 100 µM	> 100 µM	> 100 µM	> 100 µM	12.5 µM	> 100 µM	32.8 µM	> 100 µM	3.02 µM	24.3 µM	> 100 µM	> 100 µM	> 100 µM	> 100 µM
O=[N+]([O-])c1cc(Cl)c2[nH]c3c(Cl)cc([N+](=O)[O-])cc3c2c1	0.308 µM	> 42 µM	0.379 µM	> 100 µM	0.243 µM	> 100 µM	0.294 µM	16.7 µM	0.279 µM	> 100 µM	0.189 µM	1.38 µM	0.263 µM	7.12 µM	0.32 µM	> 100 µM	0.209 µM	0.752 µM	0.296 µM	> 100 µM
COc1ccc2c(=O)cc(-c3ccccc3)[nH]c2c1	4.17 µM	> 100 µM	0.389 µM	> 100 µM	0.439 µM	> 100 µM	4.56 µM	> 100 µM	0.408 µM	2.14 µM	0.716 µM	> 100 µM	0.446 µM	> 100 µM	0.258 µM		0.323 µM	> 100 µM	3.16 µM	> 100 µM
CCc1ccc(NC(=O)NC(=O)c2ccccc2[N+](=O)[O-])cc1Oc1ncc(Cl)cn1		14.5 µM		> 100 µM		> 100 µM		1.01 µM		13.9 µM		45.5 µM		3.62 µM		> 100 µM				> 100 µM
COc1cc(OC)c(C(=O)/C=C/c2cc3c(cc2OCc2ccccc2)OC(C)(C)CC3)cc1CC=C(C)C	3.25 µM	7.17 µM	5.75 µM	> 25 µM	4.26 µM	> 25 µM	9.33 µM	> 25 µM	4.89 µM	13.1 µM	13 µM	> 25 µM	2.98 µM	6.41 µM	2.77 µM	22.8 µM	6.74 µM	16.9 µM	7.36 µM	> 25 µM
CN(CCCCCl)P(=O)(OCCS(=O)(=O)CC(NC(=O)CCC(N)C(=O)O)C(=O)NC(C(=O)O)c1ccccc1)OCC1OC(n2ccc(N)nc2=O)C(F)(F)C1O (stereo not given)	0.467 µM	> 100 µM	5.24 µM	> 100 µM	1.58 µM	> 100 µM	0.02 µM		14.7 µM	> 100 µM	< 0.0213 µM	2.7 µM	0.0378 µM	> 100 µM	0.303 µM	11 µM	0.0438 µM	5.8 µM	0.59 µM	> 50.9 µM

Structure (SMILES)	GI50 [1]	TGI [1]	GI50 [2]	TGI [2]	GI50 [3]	TGI [3]	GI50 [4]	TGI [4]	GI50 [5]	TGI [5]	GI50 [6]	TGI [6]	GI50 [7]	TGI [7]	GI50 [8]	TGI [8]	GI50 [9]	TGI [9]	GI50 [10]	TGI [10]
CCCCCCCCOC(=O)CC[C@@H](C)[C@H]1CC[C@H]2[C@@H]3[C@H](OC(=O)CCN)C[C@@H]4C[C@H](OC(=O)CCN)CC[C@]4(C)[C@H]3C[C@H](OC(=O)CCN)[C@]12C	2.23 µM	4.51 µM	7.17 µM	22.4 µM			15 µM	37.1 µM	14.6 µM	35.4 µM	21.9 µM	42 µM	2.43 µM	5.43 µM			18 µM	34.6 µM	6.62 µM	22.2 µM
COC(=O)c1cc2c3ccccc3n3c(=O)c4cc5ccc(N(S(=O)(=O)c6ccc(C)cc6)S(=O)(=O)c6ccc(C)cc6)cc5nc4c(n1)c23	48.5 µM	> 100 µM	> 100 µM	> 100 µM	39.4 µM	> 100 µM	13.6 µM	43.9 µM	> 100 µM	> 100 µM	> 100 µM	> 100 µM					> 100 µM	> 100 µM	> 100 µM	> 100 µM
CC(Oc1ccc2c(-c3ccccc3)cc(=O)oc2c1)C(=O)O (stereo not given)		> 100 µM				> 100 µM		> 100 µM		> 100 µM		> 100 µM		> 100 µM		> 100 µM		> 100 µM		> 100 µM
CCC(=O)c1c(NOC2OCC(OC(C)=O)C(OC(C)=O)C2OC(C)=O)nc(OC)n(C)c1=O (stereo not given)		> 100 µM				> 100 µM		> 100 µM		> 100 µM		> 100 µM		> 100 µM		> 100 µM		> 100 µM		> 100 µM
CCOC(=O)C1=C(Nc2ccc(Cl)cc2Cl)OCC1=O		> 100 µM				> 100 µM		> 100 µM		> 100 µM		> 100 µM		> 100 µM		> 100 µM		> 100 µM		> 100 µM
CC1=CC(=O)CC2(C)CC[C@@H]3C[C@]12OC3(C)C (stereo not given in full)		> 100 µM				> 100 µM		> 100 µM		> 100 µM		> 100 µM		> 100 µM		> 100 µM		> 100 µM		> 100 µM
O=C(O)c1ccc(NCn2nc(-c3ccccc3O)oc2=S)cc1	19.9 µM	38.3 µM	59.9 µM	> 100 µM	40.7 µM	> 100 µM	39.7 µM	> 100 µM	> 100 µM	> 100 µM	> 100 µM	> 100 µM	23.7 µM	57.3 µM			> 100 µM	> 100 µM	50.5 µM	> 100 µM
COc1ccc(S(=O)(=O)N2CCN(C(=O)c3ccc(-c4ccccc4)cc3)CC2C(=O)NO)cc1 (stereo not given)			2.01 µM and 17.9 µM					12.4 µM and > 100 µM	3.88 µM and 11.2 µM	11.2 µM and 47.6 µM		10.4 µM and > 100 µM	2.92 µM and 25.5 µM				2.99 µM and 21.9 µM	12.5 µM and > 100 µM	2.16 µM and 16.2 µM	
COc1cc(C2SCCCCCCCCCCSC(c3ccc(O)c(OC)c3)SCCCCCCCCCCS2)ccc1O (stereo not given)		> 100 µM		> 100 µM		> 100 µM		> 100 µM				> 100 µM		> 100 µM		> 100 µM		> 100 µM		> 100 µM
O=c1/c(=C/c2ccccc2[N+](=O)[O-])sc2nc3ccccc3n12		31.9 µM				> 46.4 µM		> 46.4 µM		> 31.6 µM		> 46.4 µM		> 46.4 µM		25 µM		> 100 µM		> 46.4 µM
Cc1nn[n-]n1.N.N.N.N.N.[Cl-].[Co+3]	> 100 µM	> 100 µM			> 100 µM	> 100 µM	> 100 µM	> 100 µM	> 100 µM	> 100 µM	> 100 µM	> 100 µM	> 100 µM	> 100 µM	> 100 µM	> 100 µM	> 100 µM	> 100 µM	> 100 µM	> 100 µM
CCOC(=O)C(Cc1c[nH]c2c(N(CCO)CCO)cccc12)(NC(C)=O)C(=O)OCC	141 µM	283 µM	409 µM	> 1000 µM	194 µM	516 µM	> 1000 µM	> 1000 µM	270 µM	873 µM	> 1000 µM	> 1000 µM	412 µM	> 1000 µM	144 µM	890 µM			141 µM	290 µM
O=C1CC2C(=O)c3ccccc3CC2c2ccccc21 (stereo not given)		> 100 µM		> 100 µM		> 100 µM		> 100 µM		> 100 µM		> 100 µM		> 100 µM		81.6 µM				> 100 µM
CCNC(=O)COc1ccc(Br)cc1Br		> 100 µM				> 100 µM		> 100 µM		> 100 µM		> 100 µM		> 100 µM		> 100 µM		> 100 µM		> 100 µM
CC1/C=C/[C@@]2(C)CCC(C(C)(C)O)C2C(O)C[C@](C)(O)/C=C/C1 (stereo not given in full)		> 100 µM				> 100 µM		> 100 µM		> 100 µM		> 100 µM		> 100 µM		> 100 µM		> 100 µM		> 100 µM
CC1=Nc2c(ccc3c2C(=O)c2ccccc2C3=O)NC(c2cccc3c2CCC3)C1 (stereo not given)		> 100 µM				> 100 µM		> 100 µM		> 100 µM		> 100 µM		> 100 µM		> 100 µM		> 96.8 µM		> 100 µM
